# According to PubChem BioAssay AID304 (DTP/NCI, 2004):
# Where “and” joins values, the source holds several entries; their conditions need not be identical. Equal entries are not always repeated. Toxic doses and inconclusive results are not listed.
# Test system: Lymphosarcoma Mecca ip in C3AKF1 mice, survival T/C%
# Assay: NCI In Vivo Anticancer Drug Screen. Data for tumor model Lymphosarcoma Mecca (intraperitoneal) in C3AKF1 (CHKRF1) mice
# Details: endpoint: survival time, mean or median, schedule: Q01DX010 (ip), higher = longer survival
# Experimental: The antitumor activity of compounds was measured in mice bearing transplantable tumors. Survival or tumor size were measured and the results are expressed as the measurement made in the treated group (T) divided by the measurement made in the vehicle treated control group (C). The tumor model used in this assay is Lymphosarcoma Mecca (intraperitoneal) in C3AKF1 (CHKRF1) mice
# [1] = dose: 5.0 mg/kg/injection, vehicle: saline
# [2] = dose: 10.0 mg/kg/injection, vehicle: saline
# [3] = dose: 20.0 mg/kg/injection, vehicle: saline
# [4] = dose: 40.0 mg/kg/injection, vehicle: saline
# [5] = dose: 12.5 mg/kg/injection, vehicle: saline
# [6] = dose: 25.0 mg/kg/injection, vehicle: saline
# [7] = dose: 50.0 mg/kg/injection, vehicle: saline
# [8] = dose: 100.0 mg/kg/injection, vehicle: saline
# [9] = dose: 200.0 mg/kg/injection, vehicle: saline
# [10] = dose: 1.0 mg/kg/injection, vehicle: saline
# [11] = dose: 2.0 mg/kg/injection, vehicle: saline
# [12] = dose: 4.0 mg/kg/injection, vehicle: saline
# [13] = dose: 8.0 mg/kg/injection, vehicle: saline
# [14] = dose: 16.0 mg/kg/injection, vehicle: saline
compound,measurement,setting,value
CN(C)c1ccc(/C=C/c2ccnc3ccccc23)cc1,T/C,[1],100 % of control and 111 % of control
same,T/C,[2],94 % of control
same,T/C,[3],94 % of control and 100 % of control
same,T/C,[4],94 % of control
S=P(N1CCOCC1)(N1CC1)N1CC1,T/C,"dose: 2.5 mg/kg/injection, vehicle: saline",88 % of control
same,T/C,[1],88 % of control
same,T/C,[2],88 % of control
N=[N+]=CC(=O)OCC(N)C(=O)O (configuration not stated),T/C,"dose: 3.13 mg/kg/injection, vehicle: saline",120 % of control and 124 % of control
same,T/C,"dose: 6.25 mg/kg/injection, vehicle: saline",100 % of control
same,T/C,[5],116 % of control
same,T/C,[6],105 % of control
CSc1ncnc2nc[nH]c12,T/C,[6],109 % of control
same,T/C,[7],95 % of control and 118 % of control
same,T/C,[8],95 % of control and 113 % of control
same,T/C,[9],104 % of control
Nc1nc2n[nH]nc2c(=O)[nH]1,T/C,"dose: 25.0 mg/kg/injection, vehicle: alkali diluted with saline",115 % of control
same,T/C,"dose: 50.0 mg/kg/injection, vehicle: alkali diluted with saline",88 % of control and 110 % of control
S=P(N1CC1)(N1CC1)N1CC1,T/C,[10],270 % of control
same,T/C,[11],90 % of control
same,T/C,[12],109 % of control
O=C(Nc1ccc(C2=NCCCN2)cc1)c1ccc(C(=O)Nc2ccc(C3=NCCCN3)cc2)cc1,T/C,[10],111 % of control and 116 % of control
same,T/C,[11],116 % of control and 122 % of control
same,T/C,[13],150 % of control
CCn1cnc2c(=S)nc[nH]c21,T/C,"dose: 15.6 mg/kg/injection, vehicle: saline",100 % of control
same,T/C,"dose: 31.3 mg/kg/injection, vehicle: saline",100 % of control
same,T/C,"dose: 62.5 mg/kg/injection, vehicle: saline",90 % of control
same,T/C,"dose: 125.0 mg/kg/injection, vehicle: saline",100 % of control
NC(Cc1ccc(N(CCCl)CCCl)cc1)C(=O)O (configuration not stated),T/C,[11],188 % of control and 190 % of control
same,T/C,[12],165 % of control and 224 % of control
same,T/C,[1],160 % of control
same,T/C,[13],168 % of control
same,T/C,[2],105 % of control and 110 % of control
same,T/C,[14],100 % of control and 108 % of control
same,T/C,[3],95 % of control
CS(=O)(=O)OCC(O)C(O)C(O)C(O)COS(C)(=O)=O (configuration not stated),T/C,[6],111 % of control
same,T/C,[7],100 % of control and 111 % of control
same,T/C,[8],100 % of control and 116 % of control
same,T/C,[9],100 % of control and 122 % of control
same,T/C,"dose: 400.0 mg/kg/injection, vehicle: saline",110 % of control
c1ccc(CNc2ncnc3[nH]ncc23)cc1,T/C,[13],151 % of control
same,T/C,[14],100 % of control and 118 % of control
same,T/C,"dose: 32.0 mg/kg/injection, vehicle: saline",90 % of control
Cn1c(N)nc2nc[nH]c2c1=S,T/C,[2],100 % of control and 105 % of control
same,T/C,[3],100 % of control and 105 % of control
same,T/C,[4],110 % of control
same,T/C,"dose: 80.0 mg/kg/injection, vehicle: saline",100 % of control
CCN(CC)CCCC(C)Nc1c2ccc(Cl)cc2nc2ccc(OC)cc12 (configuration not stated),T/C,[5],100 % of control
same,T/C,[6],100 % of control and 111 % of control
same,T/C,[7],90 % of control and 105 % of control
same,T/C,[8],95 % of control and 111 % of control
COCCCNP(=S)(N1CC1)N1CC1,T/C,"dose: 0.5 mg/kg/injection, vehicle: saline",100 % of control
same,T/C,[10],100 % of control
same,T/C,[11],100 % of control
same,T/C,[12],105 % of control
CS(=O)(=O)OCCCl,T/C,"dose: 18.8 mg/kg/injection, vehicle: saline",100 % of control
same,T/C,"dose: 37.5 mg/kg/injection, vehicle: saline",113 % of control
same,T/C,"dose: 75.0 mg/kg/injection, vehicle: saline",100 % of control
